pIC50: −log10 of the molar value.

The assay deals with endothelium-ablated specimen of rat thoracic aorta. Kind of assay: Effect of inhibiting contraction caused by 30 mM K on endothelium-ablated specimen of rat thoracic aorta. The assay is classed as cell-based. As to conditions: 10 min, cumulative application at intervals of 10 minutes, 37° C., 10^-4 M papaverine = 100% relaxation, read-out: median inhibitory concentration (IC50). The method, then:
(Effect of inhibiting contraction caused by 30 mM K on endothelium-ablated specimen of rat thoracic aorta)
A thoracic aorta was enucleated from a rat (weight: 129-492 g) and cut into lengths of 3 mm. Cotton in the form of a paper string was put in a lumen of each of ring specimens, and the inner surface of the ring specimen was rubbed several times with the cotton, thereby ablating an endothelium from the thoracic aorta specimen. This specimen was incubated at 37° C. and suspended in 10 ml of a Krebs-Henseleit solution, into which a mixed gas had been introduced, with a load of 2 g applied thereto. The tension thereof was isometrically recorded in a recorder through an FD transducer and a dynamic strain gage. After at least 60 minutes went on after the suspension, and the sample was stabilized, 10^-7 M noradrenaline was applied several times to the specimen. Under contraction caused by 10^-7 M noradrenaline, 10^-7 M acetylcholine was applied to the specimen. A specimen which manifested no relaxing effect at this time was used in an experiment as an endothelium-ablated specimen. Each of agents (compounds of Compound Numbers shown in Table 20 and Cromakalim) to be tested was cumulatively applied at intervals of 10 minutes from the time 30 mM K^+ had been applied to such a specimen, and the contraction of the specimen had been fixed, thereby calculating a median inhibitory concentration (IC50). Incidentally, 10^-4 M papaverine was applied to confirm 100% relaxing affect. The agents to be tested were dissolved (5×10^-2 M in dimethyl sulfoxide and diluted with purified water before their use.
For `CC1(C)Oc2ccc(C#N)cc2[C@@H](N2CCCC2=O)[C@@H]1O` (racemic) [Cromakalim, (±)-trans-6-cyano-2,2-dimethyl-4-(2-oxopyrrolidin-1-yl)-3,4-dihydro-2H-1-benzopyran-3-ol, reference compound], the pIC50 is 6.89. The result for `CC(=O)NN1CC(C)(C)C(=O)c2ccc(S(=O)(=O)C(F)(F)F)cc21` [Compound No. 44, 1-Acetoamino-2,3-dihydro-3,3-dimethyl-7-(trifluoromethyl) sulfonyl-4(1H)-quinolinone] reads 7.73; that for `CC(=O)NN1CC(C)(C)C(=O)c2ccc(S(=O)(=O)c3ccccc3)cc21` [Compound No. 53, 1-Acetoamino-2,3-dihydro-3,3-dimethyl-7-phenylsulfonyl-4(1H)-quinolinone], 7.08; that for `CC1(C)CN(N2CCCC2=O)c2cc(S(=O)(=O)c3ccccc3)ccc2C1=O` [Compound No. 63, 2,3-Dihydro-3,3-dimethyl-7-phenylsulfonyl-1-(2-oxopyrrolidin-1-yl)-4(1H)-quinolinone], 7.06. The result for `CC(=O)NN1CC(C)(C)C(=O)c2ccc(C(F)(F)F)cc21` [compound 21] reads 7.00. The result for `CC1(C)CN(NC(=O)c2cccnc2)c2cc(C(F)(F)F)ccc2C1=O` [compound 23] reads 7.18.

With `CC(=O)NN1CC(C)(C)C(=O)c2ccc(OC(F)(F)F)cc21` [compound 28], the pIC50 was 7.32.

As to `CCC(=O)NN1CC(C)(C)C(=O)c2ccc(OC(F)(F)F)cc21` [compound 29], the pIC50 is 6.98. For the compound `CC1(C)CN(NC(=O)c2cccnc2)c2cc(OC(F)(F)F)ccc2C1=O` [compound 30], the pIC50 was 7.31.

(Values after US5789419A, “4-quinolinone derivative or salt thereof” (SS Pharmaceutical Co., Ltd., priority 1994, dated 1998).)
